Laboratory results reported in patent US10030006B2, “Coumarin based Hsp90 inhibitors with urea and ether substituents” (University of Kansas, priority 2013, dated 2018).
Where two headings read alike, the source gives them in different places.

Columns and labels:
[1] = system: MCF-7 (estrogen receptor positive breast cancer cells); assay: Anti-proliferation assay (MTS/PMS, 72 h), MCF-7; assay type: cell-based
Protocol: (§1) Cells were maintained in a 1:1 mixture of Advanced DMEM/F12 (Gibco) supplemented with non-essential amino acids, L-glutamine (2 mM), streptomycin (500 μg/mL), penicillin (100 units/mL), and 10% FBS. Cells were grown to confluence in a humidified atmosphere (37° C., 5% CO2), seeded (2000/well, 100 μL) in 96-well plates, and allowed to attach overnight. Compound at varying concentrations in DMSO (1% DMSO final concentration) was added, and cells were returned to the incubator for 72 h. At 72 h, the number of viable cells was determined using an MTS/PMS cell proliferation kit (Promega) per the manufacturer's instructions. Cells incubated in 1% DMSO were used at 100% proliferation, and values were adjusted accordingly. IC50 values were calculated from separate experiments performed in triplicate using GraphPad Prism.
(§2) The anti-proliferative activity of these compounds is evaluated against two breast cancer cell lines, SKBr3 (estrogen receptor negative, Her2 over-expressing breast cancer cells) and MCF-7 (estrogen receptor positive breast cancer cells).

[2] = system: SKBr3 (estrogen receptor negative, Her2 over-expressing breast cancer cells); assay: Anti-proliferation assay (MTS/PMS, 72 h), SKBr3; assay type: cell-based
Protocol: as §1, §2

[3] = Table 3, cycloamine analogues, read-out: MCF-7
[4] = Table 3, cycloamine analogues, read-out: SKBr3
[5] = Table 9, non-aryl ureas, Breast Cancer, read-out: IC50 MCF-3
[6] = Table 9, non-aryl ureas, Breast Cancer, read-out: IC50 SKBr3
[7] = Homo sapiens, MCF7, Table 8, biphenyl ureas, Breast Cancer, read-out: IC50 MCF-3
[8] = Homo sapiens, SK-BR-3, Table 8, biphenyl ureas, Breast Cancer, read-out: IC50 SKBr3
[9] = Homo sapiens, MCF7, Table 1, modified benzamide coumarin derivatives, read-out: MCF-7
[10] = Homo sapiens, MCF7, Table 2, modified benzamide and biphenylamide derivatives (in μM), read-out: MCF-7
[11] = Table 10, modified initial novobiocin analogs, read-out: SkBr3, IC50
[12] = Homo sapiens, SK-BR-3, Table 1, modified benzamide coumarin derivatives, read-out: SKBr3
[13] = Homo sapiens, SK-BR-3, Table 2, modified benzamide and biphenylamide derivatives (in μM), read-out: SKBr3
[14] = Homo sapiens, MCF7, Table 4, alkylamino analogues, read-out: MCF-7
[15] = Homo sapiens, SK-BR-3, Table 4, alkylamino analogues, read-out: SKBr3

CC(=O)Oc1ccc(C(=O)Nc2cc3ccc(OCC4CCCN(C)C4)c(C)c3oc2=O)cc1CC=C(C)C (stereo not drawn)
IC50 [1, 3]: 1.65 ± 0.11 µM
IC50 [2, 4]: 0.74 ± 0.01 µM

CC(=O)Oc1ccc(C(=O)Nc2cc3ccc(OCC4CCN(C)C4)c(C)c3oc2=O)cc1CC=C(C)C (stereo not drawn)
IC50 [1, 3]: 1.88 ± 0.45 µM
IC50 [2, 4]: 0.88 ± 0.09 µM

CC(=O)Oc1ccc(C(=O)Nc2cc3ccc(OCCC4CCCCN4)c(C)c3oc2=O)cc1CC=C(C)C (stereo not drawn)
IC50 [1, 3]: 0.71 ± 0.03 µM
IC50 [2, 4]: 0.64 ± 0.06 µM

CC(=O)Oc1ccc(C(=O)Nc2cc3ccc(OCC4CCCNC4)c(C)c3oc2=O)cc1CC=C(C)C (stereo not drawn)
IC50 [1, 3]: 0.82 ± 0.07 µM
IC50 [2, 4]: 0.62 ± 0.04 µM

CC(C)=CCc1cc(C(=O)Nc2cc3ccc(OCCC4CCCCN4)c(C)c3oc2=O)ccc1O (stereo not drawn)
IC50 [1, 3]: 0.71 ± 0.03 µM
IC50 [2, 4]: 0.64 ± 0.06 µM

CC(C)=CCc1cc(C(=O)Nc2cc3ccc(OCC4CCCN(C)C4)c(C)c3oc2=O)ccc1O (stereo not drawn)
IC50 [1, 3]: 2.64 ± 0.45 µM
IC50 [2, 4]: 1.3 ± 0.63 µM

CC(C)=CCc1cc(C(=O)Nc2cc3ccc(OCC4CCCNC4)c(C)c3oc2=O)ccc1O (stereo not drawn)
IC50 [1, 3]: 0.79 ± 0.1 µM
IC50 [2, 4]: 0.6 ± 0.01 µM

CC(C)=CCc1cc(C(=O)Nc2cc3ccc(OCC4CCN(C)C4)c(C)c3oc2=O)ccc1O (stereo not drawn)
IC50 [1, 3]: 1.55 ± 0.04 µM
IC50 [2, 4]: 0.92 ± 0.56 µM

CC(C)=CCc1cc(C(=O)Nc2cc3ccc(OCCCN4CCNCC4)c(C)c3oc2=O)ccc1O
IC50 [1, 3]: 0.93 ± 0.21 µM
IC50 [2, 4]: 0.82 ± 0.02 µM

Cc1c(OC2CCN(C)CC2)ccc2cc(NC(=O)NCc3ccc(Cl)cc3)c(=O)oc12
IC50 [1, 5]: 1.05 ± 0.07 µM
IC50 [2, 6]: 1.04 ± 0.07 µM

COc1ccc(CNC(=O)Nc2cc3ccc(OC4CCN(C)CC4)c(C)c3oc2=O)cc1
IC50 [1, 5]: 0.65 ± 0.11 µM
IC50 [2, 6]: 0.68 ± 0.06 µM

Cc1ccc(CNC(=O)Nc2cc3ccc(OC4CCN(C)CC4)c(C)c3oc2=O)cc1
IC50 [1, 5]: 0.55 ± 0.02 µM
IC50 [2, 6]: 0.56 ± 0.07 µM

Cc1c(OC2CCN(C)CC2)ccc2cc(NC(=O)NCc3ccc(Oc4ccccc4)cc3)c(=O)oc12
IC50 [1, 5]: 0.38 ± 0.04 µM
IC50 [2, 6]: 0.23 ± 0.08 µM

Cc1ccc(NC(=O)Nc2cc3ccc(OC4CCN(C)CC4)c(C)c3oc2=O)cc1-c1cccc(Cl)c1 [CH3, Cl, 1-(3′-chloro-6-methyl-[1,1′-biphenyl]-3-yl)-3-(8-methyl-7-((1-methylpiperidin-4-yl)oxy)-2-oxo-2H-chromen-3-yl)urea]
IC50 [1, 7]: 0.5 µM
IC50 [2, 8]: 0.44 µM

COc1cccc(-c2cc(NC(=O)Nc3cc4ccc(OC5CCN(C)CC5)c(C)c4oc3=O)ccc2C)c1 [CH3, OMe, 1-(3′-methoxy-6-methyl-[1,1′-biphenyl]-3-yl)-3-(8-methyl-7-((1-methylpiperidin-4-yl)oxy)-2-oxo-2H-chromen-3-yl)urea]
IC50 [1, 7]: 0.21 µM
IC50 [2, 8]: 0.25 µM

CC(C)=CCc1cc(C(=O)Nc2cc3ccc(OC4CCN(C)CC4)c(C)c3oc2=O)ccc1O [Compound 2]
IC50 [1, 9]: 1.09 ± 0.1 µM
IC50 [1, 10]: 1.09 ± 0.1 µM
IC50 ([1]; Homo sapiens, MCF7, amide versus urea linkage, read-out: IC50 for MCF-3): 1.09 µM

Cc1c(OC2CCN(C)CC2)ccc2cc(NC(=O)Nc3ccc(Cl)cc3)c(=O)oc12 [Compound 8]
IC50 [2, 11]: 0.17 ± 0.01 µM

Cc1ccc(NC(=O)Nc2cc3ccc(OC4CCN(C)CC4)c(C)c3oc2=O)cc1C [Compound 10]
IC50 [2, 11]: 0.31 ± 0.09 µM

Cc1c(OCCC2CCCCN2)ccc2cc(NC(=O)Nc3ccc(Cl)cc3)c(=O)oc12 (stereo not drawn) [Compound 11]
IC50 [2, 11]: 0.21 ± 0.06 µM

COc1ccc(C(=O)Nc2cc3ccc(OC4CCN(C)CC4)c(C)c3oc2=O)cc1CC=C(C)C [Compound 16, 4-methoxy-N-(8-methyl-7-(1-methylpiperidin-4-yloxy)-2-oxo-2H-chromen-3-yl)-3-(3-methylbut-2-enyl)benzamide]
IC50 [1, 9]: 1.58 ± 0.09 µM
IC50 [2, 12]: 1.41 ± 0.2 µM

CCCCOc1ccc(C(=O)Nc2cc3ccc(OC4CCN(C)CC4)c(C)c3oc2=O)cc1CC=C(C)C [Compound 17, 4-butoxy-N-(8-methyl-7-(1-methylpiperidin-4-yloxy)-2-oxo-2H-chromen-3-yl)-3-(3-methylbut-2-enyl)benzamide]
IC50 [1, 9]: 1.44 ± 0.05 µM
IC50 [2, 12]: 1.4 ± 0.07 µM

C#CCOc1ccc(C(=O)Nc2cc3ccc(OC4CCN(C)CC4)c(C)c3oc2=O)cc1CC=C(C)C [Compound 18, N-(8-methyl-7-(1-methylpiperidin-4-yloxy)-2-oxo-2H-chromen-3-yl)-3-(3-methylbut-2-enyl)-4-(prop-2-ynyloxy)benzamide]
IC50 [1, 9]: 1.12 ± 0.16 µM
IC50 [2, 12]: 1.4 ± 0.11 µM

CC(C)=CCc1cc(C(=O)Nc2cc3ccc(OC4CCN(C)CC4)c(C)c3oc2=O)ccc1OCCN(C)C [Compound 23, 4-(2-(dimethylamino)ethoxy)-N-(8-methyl-7-(1-methylpiperidin-4-yloxy)-2-oxo-2H-chromen-3-yl)-3-(3-methylbut-2-enyl)benzamide]
IC50 [1, 10]: 0.72 ± 0.08 µM
IC50 [2, 13]: 0.33 µM

CC(C)=CCc1cc(C(=O)Nc2cc3ccc(OC4CCN(C)CC4)c(C)c3oc2=O)ccc1OCCCN(C)C [Compound 24, 4-(3-(dimethylamino)propoxy)-N-(8-methyl-7-(1-methylpiperidin-4-yloxy)-2-oxo-2H-chromen-3-yl)-3-(3-methylbut-2-enyl)benzamide]
IC50 [1, 10]: 0.46 ± 0.05 µM
IC50 [2, 13]: 0.25 ± 0.02 µM

CC(C)=CCc1cc(C(=O)Nc2cc3ccc(OC4CCN(C)CC4)c(C)c3oc2=O)ccc1OC1CCN(C)CC1 [Compound 25, N-(8-methyl-7-(1-methylpiperidin-4-yloxy)-2-oxo-2H-chromen-3-yl)-3-(3-methylbut-2-enyl)-4-(1-methylpiperidin-4-yloxy)benzamide]
IC50 [1, 10]: 0.47 ± 0.081 µM
IC50 [2, 13]: 0.21 µM

CCNCCCOc1ccc2cc(NC(=O)c3ccc(O)c(CC=C(C)C)c3)c(=O)oc2c1C [Compound 68a, N-(7-(3-(ethylamino)propoxy)-8-methyl-2-oxo-2H-chromen-3-yl)-4-hydroxy-3-(3-methylbut-2-en-1-yl)benzamide]
IC50 [1, 14]: 0.98 ± 0.35 µM
IC50 [2, 15]: 0.72 ± 0.34 µM

CCN(C)CCCOc1ccc2cc(NC(=O)c3ccc(O)c(CC=C(C)C)c3)c(=O)oc2c1C [Compound 68b, N-(7-(3-(ethyl(methyl)amino)propoxy)-8-methyl-2-oxo-2H-chromen-3-yl)-4-hydroxy-3-(3-methylbut-2-en-1-yl)benzamide]
IC50 [1, 14]: 2.19 ± 0.5 µM
IC50 [2, 15]: 0.73 ± 0.06 µM

CCN(CC)CCCOc1ccc2cc(NC(=O)c3ccc(O)c(CC=C(C)C)c3)c(=O)oc2c1C [Compound 68c]
IC50 ([1]; Table 4, alkylamino analogues, read-out: MCF-7): 6.39 ± 0.04 µM
IC50 ([2]; Table 4, alkylamino analogues, read-out: SKBr3): 4.9 ± 0.42 µM

CCCNCCCOc1ccc2cc(NC(=O)c3ccc(O)c(CC=C(C)C)c3)c(=O)oc2c1C [Compound 68d, 4-hydroxy-N-(8-methyl-2-oxo-7-(3-(propylamino)propoxy)-2H-chromen-3-yl)-3-(3-methylbut-2-en-1-yl)benzamide]
IC50 [1, 14]: 0.98 µM
IC50 [2, 15]: 0.99 ± 0.03 µM

CC(C)=CCc1cc(C(=O)Nc2cc3ccc(OCCCNCC(C)C)c(C)c3oc2=O)ccc1O [Compound 68f, 4-hydroxy-N-(7-(3-(isobutylamino)propoxy)-8-methyl-2-oxo-2H-chromen-3-yl)-3-(3-methylbut-2-en-1-yl)benzamide]
IC50 [1, 14]: 1.32 ± 0.06 µM
IC50 [2, 15]: 1.03 ± 0.02 µM

CC(C)=CCc1cc(C(=O)Nc2cc3ccc(OCCCNC(C)C)c(C)c3oc2=O)ccc1O [Compound 68g, 4-hydroxy-N-(7-(3-(isopropylamino)propoxy)-8-methyl-2-oxo-2H-chromen-3-yl)-3-(3-methylbut-2-en-1-yl)benzamide]
IC50 [1, 14]: 0.74 ± 0.16 µM
IC50 [2, 15]: 0.75 ± 0.26 µM

CC(C)=CCc1cc(C(=O)Nc2cc3ccc(OCCCN(C)C(C)C)c(C)c3oc2=O)ccc1O [Compound 68h, 4-hydroxy-N-(7-(3-(isopropyl(methyl)amino)propoxy)-8-methyl-2-oxo-2H-chromen-3-yl)-3-(3-methylbut-2-en-1-yl)benzamide]
IC50 [1, 14]: 1.05 ± 0.06 µM
IC50 [2, 15]: 0.57 ± 0.13 µM

CC(C)=CCc1cc(C(=O)Nc2cc3ccc(OC4CCN(C)CC4)c(C)c3oc2=O)ccc1O [drawing 134]
IC50 [1, 3]: 1.09 ± 0.1 µM
